{"source": "patent US20250375434A1", "about": "“SMALL MOLECULES AND METHODS FOR INDUCING CARDIOMYOCYTE PROLIFERATION” (UNIVERSITY OF VIRGINIA PATENT FOUNDATION, priority 2024, published 2025)", "key": {"[1]": {"tested_on": "hiPSC-CMs (iCell Cardiomyocytes)", "assay": "Multinucleation analysis after 6 days of treatment", "format": "cell-based, human", "settings": "10 μM inhibitor alone or with C3, compared to negative control or compound treatment alone", "method": "Multinucleation Analysis—Multinucleated cells were identified based on the distance between neighboring nuclei. This distance threshold was determined using Cardiac-Troponin T staining to visualize cell borders. A morphological closing operation with a circular structuring element was applied to the binary segmented mask to merge and classify nuclei in multinucleated cells."}, "[2]": {"tested_on": "hiPSC-CMs (iCell Cardiomyocytes)", "assay": "DNA synthesis assay (48 h EdU incorporation)", "procedure": "ICell Cardiomyocytes (Cellular Dynamics International) were seeded in 96-well or 384-well Corning CellBind plates at approximately 2.5×10^4 to 3.5×10^4 cells/cm^2. Cells were cultured for 2 days in iCell Cardiomyocytes Plating Medium (Cellular Dynamics International) supplemented with 1% Penicillin/Streptomycin (P/S; Gibco) followed by an additional 4 days in iCell Cardiomyocytes Maintenance Medium (Cellular Dynamics International) supplemented with 1% P/S. For all experiments, cells were first serum starved for 4 h and then treated in William's E medium without phenol red (Gibco) supplemented with Primary Hepatocyte Cell Maintenance Cocktail B (Gibco) containing P/S, ITS+, GlutaMAX, and HEPES. Cells were cultured for all experiments in a humidified environment at 37° C. with 5% CO2.\nEdU incorporation and labeling with copper catalyzed click chemistry was used to measure DNA synthesis. Cells were treated in the presence of 1 μM EdU (Invitrogen) for 48 h, and subsequently fixed and permeabilized prior to incubation with the EdU click chemistry reaction mix—100 mM Tris HCL pH 7.0 (Gentrox), 4 mM CuSO4 (Sigma), 100 mM ascorbic acid (Sigma), and 5 μM Alexa Fluor 546 Azide (Click Chemistry Tools). After labelling EdU, cells were stained with anti-Cardiac Troponin T (Abcam) and DAPI (Sigma).\nCustom image analysis and processing pipelines were developed and implemented in MATLAB to quantify the number of nuclei/cells, percent EdU positive objects, percent Ki67 positive objects, multinucleation, DNA content, cell cycle phases, and ploidy.\nClassification—The binary segmented mask and background subtracted images were used to calculate the mean intensities of Hoechst 33342, DAPI, Cardiac-Troponin T, EdU, and Ki67 staining for each segmented object. […] Marker positivity thresholds were determined using Rosin's unimodal thresholding algorithm [63] on the mean intensity values for each segmented object."}, "[3]": {"tested_on": "hiPSC-CMs (iCell Cardiomyocytes)", "assay": "Live-cell proliferation assay (change in number of cells over 6 days)", "procedure": "Using the same live-cell proliferation assay we developed in the previous study [13], we confirmed the 5-point concentration-response profiles (0.1-10.0 μM) in three independent manufacturing lots of iCell Cardiomyocytes (FIG. 7). Briefly, hiPSC-CMs were stained with a low, non-toxic concentration of Hoechst 33342 and the same imaging fields of view were collected at both initial (day 0) and final (day 6) timepoints. We quantified the change in the number of cells, binucleation events, and DNA content distribution using the image segmentation and analysis pipeline described in the previous study [13].\nICell Cardiomyocytes (Cellular Dynamics International) were seeded in 96-well or 384-well Corning CellBind plates at approximately 2.5×10^4 to 3.5×10^4 cells/cm^2. […] Cells were cultured for all experiments in a humidified environment at 37° C. with 5% CO2.\nPharmacology Metrics—Based on concentration-dependent responses of changes in cell number, we quantified area under the curve (AUC) as the sum of the relative changes in cell number across the five concentrations of compound. As a measure of potency, we performed cubic B-spline interpolation and then calculated the minimum concentration needed to achieve 50% of the maximum effect."}, "VEGFR2 (KDR)": {"tested_on": "VEGFR2 (KDR)", "settings": "12 h treatment, compared to the DMSO negative control", "procedure": "To further investigate the role of RTKs in compound-induced proliferation, we profiled the activity of 49 RTKs using a specialized array with the same protein lysates used for the RPPA.\nCells were seeded in 60 mm Corning CellBind dishes, cultured for 6 days, serum starved for 4 h, and treated with compounds for 12 h with 3 replicates. At the end of the experiment, cells were treated with 1 mM peroxyvanadate (1 mM NaVO3, 0.1 μg/mL Catalase, 0.003% H2O2) for 15 min prior to cell lysis. Cells were then rinsed with ice-cold 1×PBS and lysed on ice for 15 min with lysis buffer (50 mM Tris-HCl pH 7.5, 150 mM NaCl, 0.1 mM EDTA, 1 mM DTT, 1 mM NaVO3, 0.5% TritonX-100) containing protease inhibitor cocktail (Sigma). Cell lysates were mechanically homogenized using 28-gauge syringes, spun down, and adjusted to equivalent concentrations. The Proteome Profiler Human Phospho-RTK Array Kit (R&D Systems) was used to measure phosphorylation activity of 49 RTKs. Briefly, the arrays with printed anti-RTK antibodies were blocked for 1 hour and incubated with 38.8 μg of total protein lysate overnight at 4° C. The arrays were then washed and incubated with anti-phospho-tyrosine antibodies conjugated to HRP and detected via chemiluminescence. Array films were scanned and Image Studio software (LI-COR) was used to quantify intensities of each spot. […]"}, "[4]": {"tested_on": "hiPSC-CMs (iCell Cardiomyocytes)", "assay": "DNA content / ploidy and cell cycle phase analysis after 6 days of treatment"}}, "data": [{"smiles": "CNC(=O)c1ccccc1Sc1ccc2c(/C=C/c3ccccn3)n[nH]c2c1", "note": "[axitinib]", "values": [{"measurement": "increase in multinucleation", "setting": "[1]", "value": "over 2 fold"}]}, {"smiles": "C[C@]1(O)C[C@@H](c2nc(-c3ccc4ccc(-c5ccccc5)nc4c3)c3c(N)nccn32)C1", "note": "[linsitinib]", "values": [{"measurement": "effect of inhibitor on C3 induced DNA synthesis", "setting": "[2]; 0.1 μM inhibitor in combination with 3.2 μM C3, 48 hrs", "value": "modest effect in reducing"}, {"measurement": "effect of inhibitor on late-stage proliferation metrics", "setting": "[3]; 0.1 μM inhibitor in combination with 3.2 μM C3, day 6", "value": "no effect"}]}, {"smiles": "COc1cccc(-c2cc(=O)c3ccccc3o2)c1N", "note": "[PD98059]", "values": [{"measurement": "effect of inhibitor alone on DNA synthesis (EdU incorporation)", "setting": "[2]; 10 μM inhibitor alone, unstimulated hiPSC-CMs, 48 h", "value": "modest decreases"}, {"measurement": "effect of inhibitor on C3 induced DNA synthesis", "setting": "[2]; 10 μM inhibitor in combination with 3.2 μM C3, 48 h", "value": "attenuated"}, {"measurement": "effect of inhibitor on C3 induced proliferation (increase in cell numbers)", "setting": "[3]; 10 μM inhibitor in combination with 3.2 μM C3, day 6", "value": "only INK and PI3K inhibition attenuated"}]}, {"smiles": "Cc1cccc(-c2n[nH]cc2-c2ccc3ncccc3n2)n1", "note": "[C3, RepSox]", "values": [{"measurement": "VEGFR2 (KDR) activation / expression", "setting": "VEGFR2 (KDR)", "value": "induced"}, {"measurement": "maximum-effect concentration", "setting": "[3]; 5-point concentration response 0.1-10 μM, 6 days", "value": 3.2, "unit": "µM"}, {"measurement": "proliferation (change in the number of cells over 6 days)", "setting": "[3]; compound alone at Emax concentration, 6 days", "value": "induces proliferation"}, {"measurement": "endoreplication cycles", "setting": "[4]", "value": "without additional endoreplication cycles"}]}]}
